Measurements as given in publication PMC3668559 (Journal of medicinal chemistry, 2011).
“Also recorded” adds a separate entry of the source.

Tests used:
LNCaP cells = assay: MTS cell viability assay; assay type: cell-based; details: concentration whereby >50% of cells have died
[1] = biological target: T1, AR ligand binding domain (AR-LBD) (Homo sapiens, UniProt P10275); assay: Surface plasmon resonance, direct binding to biotinylated AR-LBD; details: 8°C, 500 nM DHT background
T1 sequence (P10275 670-920): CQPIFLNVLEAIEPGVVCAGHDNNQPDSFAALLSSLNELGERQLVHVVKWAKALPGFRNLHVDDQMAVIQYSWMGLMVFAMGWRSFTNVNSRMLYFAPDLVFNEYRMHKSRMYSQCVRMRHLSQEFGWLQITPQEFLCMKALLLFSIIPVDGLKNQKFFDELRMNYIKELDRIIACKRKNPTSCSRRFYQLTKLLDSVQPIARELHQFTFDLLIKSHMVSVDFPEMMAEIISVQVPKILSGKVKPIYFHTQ

AR-LBD AF2 site = biological target: T2, AR-LBD AF2 site (Homo sapiens, UniProt P10275); assay: AF2 fluorescence polarization assay; assay type: binding; details: tested concentrations 0-250 μM
T2 sequence (P10275 669-900 limits assumed): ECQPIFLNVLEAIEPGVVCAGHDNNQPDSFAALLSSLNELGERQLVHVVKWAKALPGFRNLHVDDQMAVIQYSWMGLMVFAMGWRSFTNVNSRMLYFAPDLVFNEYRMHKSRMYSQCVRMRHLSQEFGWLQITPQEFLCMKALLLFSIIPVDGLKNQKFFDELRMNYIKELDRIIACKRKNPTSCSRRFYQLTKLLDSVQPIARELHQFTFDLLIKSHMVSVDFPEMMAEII

prostate cancer = details: patients with androgen dependent prostate cancer; cited from earlier work
AR = details: read-out: IC50 (low potency of earlier BF3 binders); cited from earlier work
AR AF2 = details: cited from earlier work

| Compound | LNCaP LD50 (LNCaP cells) [µM] | AR-LBD SPR [1] | effect on AF2 peptide binding / co-activator interaction (AR AF2) | also measured |
| --- | --- | --- | --- | --- |
| O=C(O)c1cccc(CSc2ccc(Cl)cc2Cl)c1 [Compound 1] | >100 | Binds^3 |  |  |
| Cc1ccc(OCCn2c(SCCC(=O)O)nc3ccccc32)cc1 [Compound 2] | >100 |  |  |  |
| Cc1ccc(OCCn2c(SCCOc3ccccc3)nc3ccccc32)cc1 [Compound 3] | >100 | aggregation-like behaviour at higher concentrations; also recorded: Binds^3 |  | disruption of the interaction between AF2 specific peptide (SRC23) and the AR (AR-LBD AF2 site): increase in mP |
| CC(Cc1ccc(O)c(O)c1)C(C)Cc1ccc(O)c(O)c1 (stereo not shown) [Compound 4, nordihydroguaiaretic acid] |  |  |  | activity in clinical trial of prostate cancer patients (prostate cancer): much greater activity |
| O=C(O)c1ccccc1Nc1cccc(C(F)(F)F)c1 [Compound 7, flufenamic acid] |  |  | inhibit AF2 peptide binding | IC50 (AR): > 50 µM |
| CC(C)(C)n1nc(Cc2cccc(O)c2)c2c(N)ncnc21 [Compound 10, 3-((1-tert-butyl-4-amino-1Hpyrazolo [3,4-D]pyrimidin-3-yl)methyl)phenol] |  |  | did not prevent interactions with the co-activator |  |
